Patent US10287259B2, “Selenazolidine and thiazolidine compounds for treating cancer and other diseases” (The Penn State Research Foundation, priority 2016, dated 2019)

Tests used:
Assay type in all cases: cell-based
Panc-1 cells [1] = assay: MTT cell viability assay, Panc-1
Procedure: (§1) MTT (3-(4,5-dimethylthiazol-2-yl)-2,5-diphenyltetrazolium) assay was performed to determine the effect of AS-10 on cancer cell viability (Plano et al., 2016, J. Med. Chem. 1946-1959; Alcolea et al., 2012, Eur. J. Med. Chem. 113:134-144; Kumar et al., 2014, Eur. J. Med. Chem. 81:267-276). Briefly, 3×10^3 cells were treated with different concentrations of AS-10 in triplicate in a 96-well plate for different time points. MTT solution (20 μL of 5.0 mg/mL solution) was added to each well, three hours prior to termination time point and incubated at 37° C. Resultant formazan crystals, at termination time point, were dissolved in 50 μL DMSO. The plate was subjected to a 96-well multiscanner (Dynex Technologies, MRX Revelation; Chantilly, Va., USA) for measuring the optical densities at 570 nm and 630 nm. IC50 values were determined by performing non-linear regression using Graphpad Prism software.
To test the anti-cancer activity of AS-10 in pancreatic cancer (PC) cell lines, a MTT assay was performed. PC cell lines, Panc-1 and BxPC3, were treated with AS-10 at different doses at different time points (24, 48, and 72 h). Resulting cells were subjected to MTT cell viability assay. […] Panc-1 cells were treated with different doses of AS-10 for 48 h. After 48 h, live cells were counted and plated in a new petri dish. Cells were allowed to form colonies for 17 days. At the end of 17 days the colonies were counted and compared to the untreated cells.

Lung cancer cells (A549) = assay: MTT cell viability assay, A549; conditions: A549, 48 h (FIG. 5C); acetate functionality removed
Procedure: as §1

LNCaP cells = assay: MTT cell viability test, LNCaP
Procedure: as §1

pancreatic cancer cells = assay: MTT cell viability assay, pancreatic cancer (PC) cells; conditions: screening
Procedure: as §1

Panc-1 cells [2] = assay: Muse Live/dead Annexin V assay; conditions: Panc-1, 48 h; AS-10 2.5 μM, gemcitabine 50 μM
Procedure: Muse Annexin V & Dead Cell kit was used to determine the apoptosis cells in AS-10 treated Panc-1 cells (Plano et al., 2016, J. Med. Chem. 1946-1959). The Muse Annexin V & Dead cell assay contains Annexin V to detect phosphatidylserine (PS) on the outer surface of cells. The kit also contains a dead cell marker, 7-amino-actinomycin D (7-AAD). […] In brief, Panc-1 (1.5×10^5) cells were treated with a given dose of AS-10 or DMSO for appropriate time (0, 6, 12, 24, 36, or 48 h). Both floating cells as well as adherent cells were collected and subjected for Annexin V staining using Muse Annexin V & Dead Cell kit with Muse cell analyzer (EMD Millipore, Billerica, Mass., USA). The obtained data were analyzed using Muse 1.4 software.

Panc-1 cells [3] = assay: Western blot analysis of Panc-1 lysates; conditions: Panc-1, 48 h; low dose AS-10 2.5 μM, gemcitabine 50 μM
Procedure: Whole-cell lysates were made by subjecting AS-10 treated Panc-1 cells to RIPA lysis buffer (Thermo Scientific, USA) containing protease (Roche, USA) and phosphatase inhibitor cocktails (Sigma-Aldrich, USA) (Plano et al., 2016, J. Med. Chem. 1946-1959). Lysates were spun at 15,000 rpm for 10 minutes. Resulting supernatant was stored at −80° C. until use. NuPAGE gel 4-12% (Life Technologies, Carlsbad, Calif.) was used to resolve the lysates, followed by electro-transfer to PVDF membrane. After the transfer membrane was blocked with 5% non-fat milk and probed with different antibodies. Protein of interest were detected by using enhanced Chemiluminescent reagent (Life technologies, USA). Blots were stripped using Restore Western blot stripping buffer (Thermo Scientific, USA) to save time and samples.

Panc-1 cells [4] = assay: Live/dead assay with calcein-AM and ethidium bromide; conditions: Panc-1, 48 h; AS-10 2.5 μM, gemcitabine 50 μM
Procedure: To determine the dead cell population, we used LIVE/DEAD Viability/Cytotoxicity Kit (L3224, Life technologies, USA). Panc-1 cells were treated with either DMSO, gemcitabine (50 μM), or AS-10 (2.5 μM) or in combination for 48 h. Live and dead cells were determined by subjecting treated cells to LIVE/DEAD Viability/Cytotoxicity Kit (Plano et al., 2016, J. Med. Chem. 1946-1959). […] While ethidium homodimer-1 can only enter cells who have lost their plasma membrane integrity or dead cells and fluorescents red. Stained cells were visualized using a fluorescence microscope (Zeiss—Axio Scope.A1) with a 20× objective lens. Percentage values of live and dead cells were calculated.

With `CC(=O)Oc1ccccc1C(=O)/N=C1\SCCN1C(=O)c1ccccc1OC(C)=O` [ASD-123, 2-((3-(2-acetoxybenzoyl)-1,3-thiazolidin-2-ylidene)carbamoyl)phenyl acetate] the “potency compared to AS-10” value (Panc-1 cells [1]; Panc-1, 48 h (FIG. 5B), Se replaced by S) was “significant loss in the potency”.

With `O=C(/N=C1\[Se]CCN1C(=O)c1ccccc1)c1ccccc1` [ASD-171, N-(3-benzoyl-1,3-selenazolidin-2-ylidene)benzamide] the “potency compared to AS-10” value (Lung cancer cells (A549)) was “significant loss in the potency”.

`CC(=O)Oc1ccccc1C(=O)O` [aspirin, reference compound] was tested, and the “EC50 range, growth inhibition (comparison)” value (LNCaP cells) was “millimolar range” and the “effect on PC cell lines at doses similar to AS-10” value (pancreatic cancer cells) was “did not have any effects”.

With `Nc1ccn([C@@H]2O[C@H](CO)[C@@H](O)C2(F)F)c(=O)n1` [gemcitabine, reference compound] the total apoptotic cells (Panc-1 cells [2]) was ~25%, the PARP cleavage (Panc-1 cells [3]) was “no effect on PARP cleavage” and the “response of Panc-1 cells to treatment” value (Panc-1 cells [1]; highest tested dose 500 μM, 48 h) was “resistant”. The dead cells (Panc-1 cells [4]) was ~10%.
